The record followed here is patent US20040072846A1, “Pharmaceutical formulation containing thienopyrimidines and antithrombotics, calcium antagonists, prostaglandins or prostaglandin derivatives” (priority 2000, published 2004).

A word on the melting point: it is the temperature of the solid-liquid transition.

As for `COc1ccc(CNc2nc(CCC(=O)O)nc3sc4c(c23)CCCC4)cc1Cl` [Example 2, 3-[4-(3-chloro-4-methoxybenzylamino)-5,6,7,8-tetrahydro-[1]-benzothieno-[2,3-d]-pyrimidin-2-yl]propionic acid], the melting point is 229 °C.
